Results as given in PMC9866693, “Novel Benzimidazole Derived Imine Ligand and Its Co(III) and Cu(II) Complexes as Anticancer Agents: Chemical Synthesis, DFT Studies, In Vitro and In Vivo Biological Investigations” (Pharmaceuticals, 2023).

Key:
[1] = tested on: Ehrlich–Lettre ascites carcinoma (EAC) cell line; assay: MTT anti-proliferative assay, EAC; assay type: cell-based; conditions: 48 h, incubated for 2 days, read-out: IC50 against EAC
Procedure: (§1) In vitro anti-proliferative assays of the cultured cell lines A549, EAC, SIHA and NIH3T3, under laboratory conditions, were performed. The cells were developed in Dulbecco’s Modified Eagle Medium (DMEM) (Gibco-Invitrogen, Austin, TX, USA), in addition with heat-inactivated Foetel Bovine Serum (Invitrogen, Waltham, MA, USA), Pen Strep and followed by the addition of NaHCO3 (0.40%). The resulting component was incubated at 37 °C and maintained at 97% humidity and 90% air atmosphere. Exactly 10 µM of the synthesized ligand HBMF and its complexes (C1–C4), prepared using DMSO as a solvent, was used initially to assess their cytotoxicity and anti-proliferative activity in vitro using the MTT assay as described previously. 5-fluorouracil was used as a positive control and an appropriate vehicle control.
(§2) The various cell lines, such as A549, EAC, SIHA and NI3T3, were used initially to investigate the extent of preliminary proliferation against the MTT assay. The synthesized ligand, the complexes, and 5-fluorouracil were treated with all four cell lines as mentioned above. The cells were treated in the absence and presence of the ligand and its complexes and were incubated for 2 days. The effect of the proliferating cells and the color change was investigated by adding 5 mg/mL of 3-(4,5-Dimethylthiazol-2-yl)-2,5-Diphenyltetrazolium Bromide (MTT) reagent.

[2] = tested on: SIHA cell line; assay: MTT anti-proliferative assay, SIHA; assay type: cell-based; conditions: Homo sapiens, 48 h, incubated for 2 days, read-out: IC50 against SIHA
Procedure: as §1, §2

[3] = tested on: NIH3T3 cell line; assay: MTT anti-proliferative assay, NIH3T3; assay type: cell-based; conditions: Mus musculus, NIH3T3, 48 h, incubated for 2 days, read-out: IC50 against NIH3T3
Procedure: as §1, §2

[4] = tested on: A549 cell line; assay: MTT anti-proliferative assay, A549; assay type: cell-based; conditions: Homo sapiens, A549, 48 h, incubated for 2 days, read-out: IC50 against A549
Procedure: as §1, §2

[5] = Solubility and stability observations; assay type: physicochemical
Description: Scheme 1 depicts the general route for the preparation of HBMF. Neutralization of the aqueous solution of 2-(aminomethyl) benzimidazole hydrochloride (0.100 g, 0.4543 mmol) was done in the first step of synthesis using an aqueous solution of potassium carbonate (0.0753 g, 0.5451 mmol) and then mixed with a methanolic solution of 5-fluorosalicyladihyde (0.0630 g, 0.4543 mmol). The resulting mixture was stirred at room temperature using a magnetic stirrer. The yellow precipitate obtained was filtered off and washed with water followed by petroleum ether and dried under vacuum. The completion of the reaction was monitored on pre-coated silica gel plates by the thin layer chromatography (TLC) method using chloroform and methanol as the solvent system in the ratio (9:1). The Schiff base thus obtained was insoluble in water but soluble in methanol, DMSO, etc. Elemental analysis for HBMF (C15H11FN3O): Calculated (%): C, 62.91; H, 4.33; F, 7.05; N, 14.59; O, 5.90. Found (%): C, 62.95; H, 4.36; F, 7.09; N, 14.65; O, 5.94. ^1H NMR (CDCl3, 400 MHz) ð: 5.09 [C1] (s, 2H, CH2); 6.86 [C7 and C6] (dd, 2H, Ar-H); 7.04–7.06 [C12 and C13] (t, 1H, Ar-H); 7.25 [C4] (d, 2H, Ar-H); 7.57 [C11] (d, 1H, Ar-H); 7.58 [C14] […]
Millimolar solutions of all the prepared metal complexes (C1-0.599, C2-0.615, C3-0.595, and C4-0.629 […]) were prepared using DMSO solvent and the conductance was measured (Table S1). […]

Compound | IC50 [1] [µM] | IC50 [2] [µM] | IC50 [3] [µM] | IC50 [4] [µM] | Solubility in methanol, DMSO ([5]; methanol, DMSO, etc.) | Solubility in water ([5]; water)
Oc1ccc(F)cc1/C=N/Cc1nc2ccccc2[nH]1 [HBMF, 2-((E)-((1H-benzo[d]-2-yl)methylimino)methyl)-4-fluorophenol] | 48 ± 0.3 | 53.4 ± 0.7 | 52.6 ± 0.4 | 54.21 ± 0.4 | soluble | insoluble
O=c1[nH]cc(F)c(=O)[nH]1 [5‐FU, 5-fluorouracil, reference compound] | 6.1 ± 1.8 | 6.2 ± 0.7 | 7.8 | 7.2 ± 0.5 |  | 
